{"source": "patent US20160215031A1", "about": "“METHOD OF TREATING DISORDERS REQUIRING DESTRUCTION OR REMOVAL OF CELLS” (Nymox Pharnaceutical Corporation, priority 2015, published 2016)", "key": {"patients with BPH [1]": {"tested_on": "patients with BPH", "assay": "Intraprostatic injection in patients with BPH: difference from baseline International Prostate Symptom Score (Mean IPSS Improvement)", "assay_type": "in vivo, men", "description": "(§1) In a study of 978 men, patients with BPH were given an intraprostatic injection of either a) DRUG in phosphate buffered saline pH 7.2 (“PBS”) or b) PBS alone, under double-blind conditions by a urologist in an office setting under ultrasound guidance. Each patient was followed for one year or longer with regular physical examinations, laboratory tests, and evaluations of symptoms. Symptomatic evaluation was measured by the International Prostate Symptom Score (IPSS) which is a quantitative scale used to gauge prostatic symptomatic improvement or worsening. The IPSS quantifies the following: 1) incomplete bladder emptying after urination; 2) frequent urination; 3) stopping and starting during urination; 4) urgent need to urinate; 5) weakness of urinary stream; 6) need to push or strain during urination; 7) need to urinate after going to sleep at night (nocturia). The difference from baseline IPSS was compared in patients who were given DRUG vs patients who received PBS alone. Patients who had no previous history of conventional drug treatment (“treatment naïve”) were compared to patients who had previously failed on other conventional approved drugs such as alpha blockers or 5-alpha reductase inhibitors.\nPatients with BPH were given an intraprostatic injection of either a) DRUG in phosphate buffered saline pH 7.2 (“PBS”) or b) PBS alone, under double-blind conditions by a urologist in an office setting under ultrasound guidance. Each patient was followed for one year or longer with regular physical examinations, laboratory tests, and evaluations of symptoms. Symptomatic evaluation was measured by the International Prostate Symptom Score (IPSS) which is a quantitative scale used to gauge prostatic symptomatic improvement or worsening. The IPSS quantifies the following: 1) incomplete bladder emptying after urination; 2) frequent urination; 3) stopping and starting during urination; 4) urgent need to urinate; 5) weakness of urinary stream; 6) need to push or strain during urination; 7) need to urinate after going to sleep at night (nocturia). The difference from baseline IPSS was compared in patients who were given DRUG vs patients who received PBS alone. Patients who had both a) no previous history of conventional drug treatment (“treatment naïve”) and b) their BPH symptoms for <10 years, were compared to patients who had either a) previously failed on other conventional approved drugs such as alpha blockers or 5-alpha reductase inhibitors or b) had their BPH symptoms for >=10 years.\nIn a study of 978 men, patients with BPH were given an intraprostatic injection of either a) DRUG in phosphate buffered saline pH 7.2 (“PBS”) or b) PBS alone, under double-blind conditions by a urologist in an office setting under ultrasound guidance. Each patient was followed for one year or longer with regular physical examinations, laboratory tests, and evaluations of symptoms. Symptomatic evaluation was measured by the International Prostate Symptom Score (IPSS) which is a quantitative scale used to gauge prostatic symptomatic improvement or worsening. The IPSS quantifies the following: 1) incomplete bladder emptying after urination; 2) frequent urination; 3) stopping and starting during urination; 4) urgent need to urinate; 5) weakness of urinary stream; 6) need to push or strain during urination; 7) need to urinate after going to sleep at night (nocturia). The difference from baseline IPSS at an average of 22 months after treatment was compared in patients who were given DRUG vs patients who received PBS alone. Patients who were followed for only 12 months were imputed a change from 12 months onward equal to the mean of their group. Patients who had no previous history of conventional drug treatment (“treatment naïve”) were compared to patients who had previously failed on other conventional approved drugs such as alpha blockers or 5-alpha reductase inhibitors. […]"}, "patients with BPH [2]": {"tested_on": "patients with BPH", "assay": "Intraprostatic injection in patients with BPH: proportion of patients worsening by IPSS", "assay_type": "in vivo, men", "set-up": "decrease in the proportion of patients worsening over time, compared to the control: concentration or dose not given beside the values", "description": "as §1\nPatients with BPH were given an intraprostatic injection of either a) DRUG in phosphate buffered saline pH 7.2 (“PBS”) or b) PBS alone, under double-blind conditions by a urologist in an office setting under ultrasound guidance. Each patient was followed for one year with regular physical examinations, laboratory tests, and evaluations of symptoms. Symptomatic evaluation was measured by the International Prostate Symptom Score (IPSS) which is a quantitative scale used to gauge prostatic symptomatic improvement or worsening. The IPSS quantifies the following: 1) incomplete bladder emptying after urination; 2) frequent urination; 3) stopping and starting during urination; 4) urgent need to urinate; 5) weakness of urinary stream; 6) need to push or strain during urination; 7) need to urinate after going to sleep at night (nocturia). The difference from baseline IPSS was compared in patients who were given DRUG vs patients who received PBS alone. Previous treatment naive patients who had BPH history <10 years were compared to patients with previous treatment failure and to patients with BPH history >=10 years."}}, "note": "Marks after values point to notes of the source that are not given here.", "data": [{"substance": "DRUG: NTP peptide given by intraprostatic injection in PBS pH 7.2; sequence not stated in the examples, probably SEQ ID NO. 66 (IDQQVLSRIKLEIKRCL)", "values": [{"measurement": "improvement of patients symptomatic for less than 10 years compared to patients symptomatic for more than 10 years", "setting": "patients with BPH [1]; 12 months (Example 5)", "value": "about 40.9%"}, {"measurement": "improvement in treatment naive patients compared to the improvement found in treatment failure patients", "setting": "patients with BPH [1]; 90 days (Example 1)", "value": "~1,700%"}, {"measurement": "increase in treatment naive patients compared to the improvement found in treatment failure patients", "setting": "patients with BPH [1]; 90 days (Example 1)", "value": 16.7, "unit": "fold"}, {"measurement": "Mean IPSS Improvement", "setting": "patients with BPH [1]; duration of BPH symptoms <10 years, 12 months after treatment", "value": "6.2*"}, {"measurement": "Mean IPSS Improvement", "setting": "patients with BPH [1]; duration of BPH symptoms ≧10 years, 12 months after treatment", "value": 4.4}, {"measurement": "improvement compared to previously treated patients receiving the same drug", "setting": "patients with BPH [1]; naive <10 years vs previously treated with symptoms for more than 10 years, 22 months (Example 4)", "value": "about 61.7%"}, {"measurement": "improvement compared to previously treated patients receiving the same drug", "setting": "patients with BPH [1]; naive <10 years vs previously treated with symptoms for more than 10 years, 90 days (Example 2)", "value": "about 39.7%"}, {"measurement": "improvement compared to previously treated patients receiving the same drug", "setting": "patients with BPH [1]; naive <10 years vs previously treated, worded 'symptoms for less than 10 years', 22 months (Example 4)", "value": 48.6, "unit": "%"}, {"measurement": "improvement compared to previously treated patients receiving the same drug", "setting": "patients with BPH [1]; naive <10 years vs previously treated, worded 'symptoms for less than 10 years', 90 days (Example 2)", "value": 35.4, "unit": "%"}, {"measurement": "Mean IPSS Improvement when compared to the control", "setting": "patients with BPH [1]; naive patients vs PBS, 22 months (Example 3)", "value": "about 52.9%"}, {"measurement": "Mean IPSS Improvement when compared to the control", "setting": "patients with BPH [1]; naive patients vs PBS, 90 days (Example 1)", "value": "about 26.5%"}, {"measurement": "Mean IPSS Improvement when compared to the control", "setting": "patients with BPH [1]; naive patients, BPH symptoms <10 years, vs PBS, after 22 months (Example 4)", "value": "about 61.7%"}, {"measurement": "Mean IPSS Improvement", "setting": "patients with BPH [1]; no previous treatment (treatment naive), 90 days after treatment", "value": "8.6*"}, {"measurement": "Mean IPSS Improvement", "setting": "patients with BPH [1]; previous BPH treatment (treatment failure), 90 days after treatment", "value": 6.5}, {"measurement": "Mean IPSS Improvement", "setting": "patients with BPH [1]; treatment failure and duration of BPH symptoms ≧10 years, 22 months after treatment", "value": 3.4}, {"measurement": "Mean IPSS Improvement", "setting": "patients with BPH [1]; treatment failure and duration of BPH symptoms ≧10 years, 90 days after treatment", "value": 6.3}, {"measurement": "Mean IPSS Improvement when compared to the control", "setting": "patients with BPH [1]; treatment failure patients vs PBS, 90 days (Example 1)", "value": "about 1.5%"}, {"measurement": "Mean IPSS Improvement", "setting": "patients with BPH [1]; treatment failure, 22 months after treatment", "value": 3.7}, {"measurement": "Mean IPSS Improvement", "setting": "patients with BPH [1]; treatment naive and duration of BPH symptoms <10 years, 22 months after treatment", "value": "5.5*"}, {"measurement": "Mean IPSS Improvement", "setting": "patients with BPH [1]; treatment naive and duration of BPH symptoms <10 years, 90 days after treatment", "value": "8.8*"}, {"measurement": "Mean IPSS Improvement", "setting": "patients with BPH [1]; treatment naive, 22 months after treatment", "value": "5.2*"}, {"measurement": "improvement in proportion of patients worsening, treatment naive compared to treatment failure patients", "setting": "patients with BPH [2]; 12 months (Example 6)", "value": 4.15, "unit": "fold"}, {"measurement": "reduction of the proportion of patients worsening, treatment naive compared to treatment failure patients", "setting": "patients with BPH [2]; 12 months (Example 6)", "value": "~420", "unit": "%"}, {"measurement": "Proportion of patients worsening", "setting": "patients with BPH [2]; IPSS >0 at 12 months, treatment naive", "value": "0.097*"}, {"measurement": "decrease in the proportion of patients worsening over time, treatment naive compared to treatment failure patients", "setting": "patients with BPH [2]; IPSS >0 at one year (Example 7)", "value": "about 55.6%"}, {"measurement": "Proportion of patients worsening", "setting": "patients with BPH [2]; IPSS >0 at one year, BPH history ≧10 years", "value": ".20"}, {"measurement": "Proportion of patients worsening", "setting": "patients with BPH [2]; IPSS >0 at one year, treatment naive and BPH symptoms <10 years", "value": ".08"}, {"measurement": "decrease in the proportion of patients worsening over time, treatment naive compared to treatment failure patients", "setting": "patients with BPH [2]; IPSS >1 at one year (Example 7)", "value": "~50", "unit": "%"}, {"measurement": "Proportion of patients worsening", "setting": "patients with BPH [2]; IPSS >1 at one year, BPH history ≧10 years", "value": ".13"}, {"measurement": "Proportion of patients worsening", "setting": "patients with BPH [2]; IPSS >1 at one year, treatment failure", "value": ".12"}, {"measurement": "Proportion of patients worsening", "setting": "patients with BPH [2]; IPSS >1 at one year, treatment naive and BPH symptoms <10 years", "value": ".06"}, {"measurement": "decrease in the proportion of patients worsening over time, treatment naive compared to treatment failure patients", "setting": "patients with BPH [2]; IPSS >2 at one year (Example 7)", "value": "~50", "unit": "%"}, {"measurement": "Proportion of patients worsening", "setting": "patients with BPH [2]; IPSS >2 at one year, BPH history ≧10 years", "value": ".10"}, {"measurement": "Proportion of patients worsening", "setting": "patients with BPH [2]; IPSS >2 at one year, treatment failure", "value": ".08"}, {"measurement": "Proportion of patients worsening", "setting": "patients with BPH [2]; IPSS >2 at one year, treatment naive and BPH symptoms <10 years", "value": ".04***"}, {"measurement": "decrease in the proportion of patients worsening over time, compared to the control", "setting": "patients with BPH [2]; history of BPH for more than 10 years, IPSS >0 at one year (Example 7)", "value": "about 4.7%"}, {"measurement": "decrease in the proportion of patients worsening over time, compared to the control", "setting": "patients with BPH [2]; history of BPH for more than 10 years, IPSS >1 at one year (Example 7)", "value": "~18.8", "unit": "%"}, {"measurement": "decrease in the proportion of patients worsening over time, compared to the control", "setting": "patients with BPH [2]; history of BPH for more than 10 years, IPSS >2 at one year (Example 7)", "value": "~16.7", "unit": "%"}, {"measurement": "decrease in the proportion of patients worsening over time, compared to the control", "setting": "patients with BPH [2]; naive patients <10 years, IPSS >0 at one year (Example 7)", "value": "about 61.9%"}, {"measurement": "decrease in the proportion of patients worsening over time, compared to the control", "setting": "patients with BPH [2]; naive patients <10 years, IPSS >1 at one year (Example 7)", "value": "~62.5", "unit": "%"}, {"measurement": "decrease in the proportion of patients worsening over time, compared to the control", "setting": "patients with BPH [2]; naive patients <10 years, IPSS >2 at one year (Example 7)", "value": "~66.7", "unit": "%"}, {"measurement": "decrease in the proportion of patients worsening over time, compared to the control", "setting": "patients with BPH [2]; naive patients, IPSS >0 at 12 months (Example 6)", "value": "about 51.5%"}, {"measurement": "decrease in the proportion of patients worsening over time, compared to the control", "setting": "patients with BPH [2]; treatment failure patients, IPSS >0 at 12 months (Example 6)", "value": "about 10%"}, {"measurement": "decrease in the proportion of patients worsening over time, compared to the control", "setting": "patients with BPH [2]; treatment failure patients, IPSS >0 at one year (Example 7)", "value": "about 14.3%"}, {"measurement": "decrease in the proportion of patients worsening over time, compared to the control", "setting": "patients with BPH [2]; treatment failure patients, IPSS >1 at one year (Example 7)", "value": "~25", "unit": "%"}, {"measurement": "decrease in the proportion of patients worsening over time, compared to the control", "setting": "patients with BPH [2]; treatment failure patients, IPSS >2 at one year (Example 7)", "value": "~33.3", "unit": "%"}]}]}
